Experiment [1] can be described thus: Antioxidant activity against AAPH-induced lipid peroxidation at 100 uM by UV spectrophotometry. Format: functional.
Experiment [2] can be described thus: Antioxidant activity assessed as Fe3+/ascorbic acid-induced hydroxyl radical scavenging activity at 100 uM after 30 mins. Format: functional.
Experiment [3] is described as follows: Inhibition of soybean lipoxygenase. Also on record: species or system Glycine max.
Experiment [4] can be described thus: Antioxidant activity assessed as xanthine-xanthine oxidase-induced superoxide anion radical scavenging activity at 0.1 mM after 10 mins by spectrophotometry. The class given is functional.
Experiment [5] has as its system Radical scavenging activity. The experiment can be described thus: Antioxidant activity assessed as DPPH free radical scavenging activity at 100 uM after 60 mins by spectrophotometry. The class given is functional.
The test system of experiment [6] is Radical scavenging activity. As to the kind of experiment: Antioxidant activity assessed as DPPH free radical scavenging activity at 50 uM after 20 to 60 mins by spectrophotometry. Format: functional.
In a further experiment the test system is Rattus norvegicus. As to the kind of experiment: Antiinflammatory activity in Fisher 344 rat assessed as reduction of carrageenan-induced paw oedema at 0.01 mmol/kg, ip after 3.5 hrs. Format: functional. Further details: scale not given: the % may be the effect or the level left.
In experiment [7] the test system is Radical scavenging activity. The experiment can be described thus: Antioxidant activity assessed as DPPH free radical scavenging activity at 100 uM after 20 mins by spectrophotometry. Format: functional.
A further experiment deals with Glycine max. The experiment can be described thus: Inhibition of soybean lipoxygenase at 100 uM.
The test system of experiment [8] is Radical scavenging activity. As to the kind of experiment: Antioxidant activity assessed as DPPH free radical scavenging activity at 100 uM by spectrophotometry. The class given is functional.

The structures appear in SMILES notation. The source made the active and inactive calls. No cut-off for these calls is given here.

For `Cc1c(C)c2c(c(C)c1O)CCC(C)(C(=O)O)O2` (centres undefined), the Activity in [1] is 63%; in [2] it was 73%.

On to `CC(C)=NNC(=O)c1cc2ccccc2n1C`, for which the IC50 in experiment [3] amounted to 62.5 µM. Also, the Activity in experiment [4] amounted to 100%; in experiment [5], 91%; in the experiment with Rattus norvegicus, 40%; in [1] it was 87%; in [2], 18%. Besides, the outcome in experiment [6] and in [7] was inactive.

For the molecule `CC(Cc1ccc(O)c(O)c1)C(C)Cc1ccc(O)c(O)c1` (centres undefined), the Activity in [5] came to 83%; in experiment [7], 81%.

Regarding `O=C(O)/C=C/c1ccc(O)c(O)c1`, the Activity in experiment [4] came out at 15%.

`NNC(=O)CCc1c[nH]c2ccccc12`: the Activity in [4] is 67%; in experiment [5], 56%; in [7], 12.5%. Also, the inhibition result in the experiment with Glycine max is “inactive”. Moreover, the result in experiment [6], in experiment [1] and in experiment [2] was inactive.

Turning to `C/C(Cc1ccccc1)=N/NC(=O)c1c[nH]c2ccc(O)cc12`, the result in experiment [4] and in experiment [6] was inactive. The Activity stood at 80% in [5], 50% in [1], 65% in experiment [7] and 2% in experiment [2]. Besides, the inhibition in the experiment on Glycine max was found to be 52%.

In turn, `CCCCNNC(=O)c1cc2ccccc2[nH]1` displayed a 50% inhibitory concentration (IC50) in experiment [3] of 62.5 µM. In addition, the Activity in [4] was 33%; in experiment [5], 8%; with Rattus norvegicus, 57%; in experiment [1], 78%; in experiment [7], 79%; in [2], 90%. The result in experiment [6] was inactive. The outcome in experiment [8] was Active.

Regarding `NNCCCc1c[nH]c2ccccc12`, the result in experiment [4] and in [6] was inactive. Moreover, the Activity in [5] was 99%; in experiment [1], 25%; in [7], 85%; in experiment [2], 34%. For the same molecule, the inhibition entry in the experiment on Glycine max was “inactive”.

On to `CCC(CC)NNC(=O)c1cc2ccccc2[nH]1`, for which the outcome in experiment [4] and in experiment [6] was inactive. Further, the Activity is 16% in [5], 30% in experiment [1], 11% in experiment [7] and 61% in experiment [2]. In addition, the inhibition with Glycine max came out at 19%. Also, the outcome in experiment [8] was Active.

In the case of `O=C(NN=C1CCCC1)c1cc2ccccc2[nH]1`, the result in experiment [4], in experiment [6] and in experiment [7] was inactive. Also, the Activity in [5] worked out at 38%; in experiment [1] it was 65%; in experiment [2], 17%. In addition, the inhibition in the experiment on Glycine max was determined as 37%. For the same molecule, the outcome in [8] was Active.

As to `C/C(CC(C)C)=N\NC(=O)c1cc2ccccc2[nH]1`, the outcome in experiment [4] and in experiment [6] was inactive. For the same molecule, the Activity worked out at 36% in experiment [5], 68% in experiment [1], 10% in experiment [7] and 74% in [2]. In the experiment on Glycine max, this molecule came in with an inhibition of 31%. For the same molecule, in experiment [8], the result was Active.

For `O=C(NNCCCc1ccccc1)c1cc2ccccc2[nH]1`, the outcome in experiment [4], in experiment [6] and in [2] was inactive. In addition, the Activity amounted to 8.5% in [5], 64% in experiment [1] and 53% in experiment [7]. Besides, the inhibition in the experiment with Glycine max came out at 33%. Further, in experiment [8], the outcome was Active.

As for `COc1ccc2c(c1)c(CC(=O)O)c(C)n2C(=O)c1ccc(Cl)cc1` [INDOMETHACIN], the Activity in the experiment with Rattus norvegicus turned out to be 47%.

Take `Cc1ccc(CNNC(=O)c2cc3ccccc3n2C)cc1`: 78 µM corresponded to half-maximal inhibition in [3] (IC50). For the same molecule, the Activity in [4] is 67%; in [5], 61%; in experiment [1] it was 85%; in [7], 66%. Further, the outcome in experiment [6] and in experiment [2] was inactive. For the same molecule, the outcome in [8] was Active.
